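Method: 48-hour compound exposure of cells in 96-well plates, five concentrations, linear interpolation of endpoints. TGI: concentration producing complete growth inhibition.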
Tests used:
Experiment in all cases: NCI tumour cell line growth inhibition, 48 h
EKVX NSCLC = tested on: EKVX NSCLC
ACHN renal = tested on: ACHN renal
HT29 colon = tested on: HT29 colon
NCI-H226 lung = tested on: NCI-H226 lung
SW-620 colon = tested on: SW-620 colon
SN12C renal = tested on: SN12C renal
CAKI-1 renal = tested on: CAKI-1 renal
OVCAR-4 ovarian = tested on: OVCAR-4 ovarian
NCI-H522 lung = tested on: NCI-H522 lung
MALME-3M melanoma = tested on: MALME-3M melanoma
M19-MEL melanoma = tested on: M19-MEL melanoma
SF-268 CNS = tested on: SF-268 CNS
CCRF-CEM leukemia = tested on: CCRF-CEM leukemia
HOP-18 NSCLC = tested on: HOP-18 NSCLC
HOP-62 NSCLC = tested on: HOP-62 NSCLC
OVCAR-8 ovarian = tested on: OVCAR-8 ovarian
HOP-92 NSCLC = tested on: HOP-92 NSCLC
LXFL 529 NSCLC = tested on: LXFL 529 NSCLC
TK-10 renal = tested on: TK-10 renal
RXF 393 renal = tested on: RXF 393 renal
SK-MEL-2 melanoma = tested on: SK-MEL-2 melanoma
KM20L2 colon = tested on: KM20L2 colon
NCI-H460 lung = tested on: NCI-H460 lung
SF-295 CNS = tested on: SF-295 CNS
SF-539 CNS = tested on: SF-539 CNS
DMS 114 small cell lung = tested on: DMS 114 small cell lung
UACC-257 melanoma = tested on: UACC-257 melanoma
HL-60(TB) leukemia = tested on: HL-60(TB) leukemia
SK-MEL-5 melanoma = tested on: SK-MEL-5 melanoma
A549 NSCLC = tested on: A549 NSCLC
LOX IMVI melanoma = tested on: LOX IMVI melanoma
SNB-19 CNS = tested on: SNB-19 CNS
IGROV1 ovarian = tested on: IGROV1 ovarian
786-0 renal = tested on: 786-0 renal
DMS 273 small cell lung = tested on: DMS 273 small cell lung
MOLT-4 leukemia = tested on: MOLT-4 leukemia
XF 498 CNS = tested on: XF 498 CNS
RXF-631 renal = tested on: RXF-631 renal
SK-OV-3 ovarian = tested on: SK-OV-3 ovarian
DLD-1 colon = tested on: DLD-1 colon
COLO 205 colon = tested on: COLO 205 colon
UO-31 renal = tested on: UO-31 renal
SK-MEL-28 melanoma = tested on: SK-MEL-28 melanoma
NCI-H23 lung = tested on: NCI-H23 lung
HCT-15 colon = tested on: HCT-15 colon
HCT-116 colon = tested on: HCT-116 colon
HCC-2998 colon = tested on: HCC-2998 colon
M14 melanoma = tested on: M14 melanoma
KM12 colon = tested on: KM12 colon
SNB-75 CNS = tested on: SNB-75 CNS
SR leukemia = tested on: SR leukemia
UACC-62 melanoma = tested on: UACC-62 melanoma
OVCAR-3 ovarian = tested on: OVCAR-3 ovarian
U251 CNS = tested on: U251 CNS
RPMI-8226 leukemia = tested on: RPMI-8226 leukemia
OVCAR-5 ovarian = tested on: OVCAR-5 ovarian
SNB-78 CNS = tested on: SNB-78 CNS
K-562 leukemia = tested on: K-562 leukemia
A498 renal = tested on: A498 renal

Measured: TGI

Cc1cccc(NC(=O)/C(=N\N)C(c2cnc3ccc([N+](=O)[O-])cc3n2)[N+](=O)[O-])c1C (stereo not given)
not listed: U251 CNS | RPMI-8226 leukemia | OVCAR-5 ovarian | SNB-78 CNS | K-562 leukemia | A498 renal
> 100 µM: all other assays above

c1cc(-c2cn3c(n2)SCC3)ccn1
44.5 µM: 786-0 renal
> 57.7 µM: SW-620 colon
93.1 µM: DMS 273 small cell lung
> 59 µM: HCT-15 colon
> 60.4 µM: HCT-116 colon
> 89.6 µM: DMS 114 small cell lung
> 67.5 µM: HL-60(TB) leukemia
> 95.2 µM: NCI-H460 lung
> 65.2 µM: SF-539 CNS
> 31.6 µM: K-562 leukemia
not listed: RXF 393 renal | RXF-631 renal
> 100 µM: all other assays above

CC(=O)/C(=C\c1ccccc1O)C(=O)Nc1ccccc1C
24.7 µM: U251 CNS
44.7 µM: HOP-62 NSCLC
71.4 µM: RPMI-8226 leukemia
37.1 µM: OVCAR-5 ovarian
54.3 µM: SNB-19 CNS
98.7 µM: SNB-78 CNS
37.5 µM: RXF 393 renal
> 100 µM: OVCAR-4 ovarian | M19-MEL melanoma | SF-268 CNS | HOP-18 NSCLC | OVCAR-8 ovarian | NCI-H460 lung | DMS 114 small cell lung | UACC-257 melanoma | SK-OV-3 ovarian | K-562 leukemia | HCT-116 colon
31 µM: UO-31 renal
29.3 µM: HCC-2998 colon
40.9 µM: ACHN renal
89.1 µM: A549 NSCLC
68.7 µM: UACC-62 melanoma
53.7 µM: SW-620 colon
79.1 µM: DLD-1 colon
76.2 µM: SF-295 CNS
39.9 µM: M14 melanoma
29.4 µM: 786-0 renal
72 µM: OVCAR-3 ovarian
79 µM: IGROV1 ovarian
28.1 µM: XF 498 CNS
42.2 µM: SF-539 CNS
41.8 µM: HL-60(TB) leukemia
48.1 µM: SR leukemia
37.2 µM: HT29 colon | NCI-H23 lung
46.9 µM: SK-MEL-2 melanoma
47.7 µM: MALME-3M melanoma
44.9 µM: HOP-92 NSCLC
70.1 µM: MOLT-4 leukemia
27.9 µM: SK-MEL-5 melanoma
96.8 µM: EKVX NSCLC
63.8 µM: CAKI-1 renal
27.6 µM: LOX IMVI melanoma
62.4 µM: NCI-H226 lung
98.6 µM: LXFL 529 NSCLC
84.9 µM: CCRF-CEM leukemia
53.8 µM: SK-MEL-28 melanoma
45.3 µM: HCT-15 colon
41.5 µM: KM12 colon
